We go through 19 compounds from US11459338B2, “Heterocyclic compounds as PRMT5 inhibitors” (JUBILANT EPISCRIBE LLC, priority 2018, dated 2022).

For test [1], the system named is Symmetric di-methyl arginine in Z-138 cells. The test can be described thus: Z-138 methylation assay, ELISA for detection of symmetric di-methyl arginine. It counts as cell-based. To be noted: Homo sapiens. As for the experimental part:
General reagents. […] Iscove's Modified Dulbecco's Medium (IMDM), Horse serum, penicillin-streptomycin, PBS and TMB-ELISA substrate solution were purchased from ThermoFisher Scientific. Symmetric di-methyl arginine antibody was purchased from Cell Signaling Technologies.Anti-SNRPD3/SmD3 antibody was purchased from Sigma-Aldrich.
ELISA for detection of Symmetric di-methyl arginine. […] A compound source plate was prepared by performing ten-point 3-fold dilution in DMSO, such that the final top concentration of the compound was 10 μM, and DMSO was 0.3%. The total volume of compounds added was 20 μL. The cells were incubated for 96 h at 37° C., 5% CO2. Z-138 cells were directly lysed in media with 3× Lysis Buffer (1×: 10 mM HEPES pH7.9, 5 mM MgCl2, 1M NaCl, 0.25M Sucrose, 1% Triton X-100, 1 mM PMSF, Protease & Phosphatase inhibitors). […] Plates were incubated at room temperature for a minimum of 3 h and then washed with PBS-Tween 20 (0.05%). The plates were blocked with 5% BSA at room temperature for 1 h, washed with PBS-Tween 20 and incubated with primary antibody at 4 C overnight.
A general note: An ELISA detects its analyte on a solid surface through an enzyme-linked reagent.

The subject of a further test is Z-138 cells. The test can be described thus: Z-138 long term proliferation assay (Cell Titer Glo). The following applies: Homo sapiens; for GI50: 192 h, Z-138 cells, cell viability, day 8, read-out: PRMT5 Z138 GI50 Day 8 μM; for IC50: Z-138, 192 h, summary of Table 1, read-out: IC50 value (all the three assays): Z138 GI50 Day 8. It is filed as cell-based. The procedure, abridged:
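Z-138 cells exposed to ten-point 3-fold dilutions (top 10 μM, 0.3% DMSO) for 96 h at 37° C., 5% CO2, then re-dosed for four more days.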
(ATP-based viability assays read luminescence as a measure of living cells.)

A further test deals with T1, PRMT5/MEP50 (Homo sapiens, UniProt O14744).
T1 construct: Full-length human PRMT5 (NP_006100)
The test can be described thus: PRMT5/MEP50 enzyme assay on peptide substrates (3H-SAM Flashplate). It is filed as biochemical. The following applies: PRMT5/MEP50 10 nM, H4 1-15aa peptide 100 nM, 3H-SAM 1 μM.

Where [2] appears, read: Z-138 cells, 96 h (day 4), read-out: PRMT5 Z138 SDMA ELISA Day 4 μM.
Setting [3] is: Z-138, 96 h, summary of Table 1, read-out: IC50 value (all the three assays): Z138 SDMA ELISA Day 4.

Like-named read-outs stand apart in the source and are kept apart here. A value given as a limit tells only on which side of the number the result lay.

T1 sequence (O14744 whole entry): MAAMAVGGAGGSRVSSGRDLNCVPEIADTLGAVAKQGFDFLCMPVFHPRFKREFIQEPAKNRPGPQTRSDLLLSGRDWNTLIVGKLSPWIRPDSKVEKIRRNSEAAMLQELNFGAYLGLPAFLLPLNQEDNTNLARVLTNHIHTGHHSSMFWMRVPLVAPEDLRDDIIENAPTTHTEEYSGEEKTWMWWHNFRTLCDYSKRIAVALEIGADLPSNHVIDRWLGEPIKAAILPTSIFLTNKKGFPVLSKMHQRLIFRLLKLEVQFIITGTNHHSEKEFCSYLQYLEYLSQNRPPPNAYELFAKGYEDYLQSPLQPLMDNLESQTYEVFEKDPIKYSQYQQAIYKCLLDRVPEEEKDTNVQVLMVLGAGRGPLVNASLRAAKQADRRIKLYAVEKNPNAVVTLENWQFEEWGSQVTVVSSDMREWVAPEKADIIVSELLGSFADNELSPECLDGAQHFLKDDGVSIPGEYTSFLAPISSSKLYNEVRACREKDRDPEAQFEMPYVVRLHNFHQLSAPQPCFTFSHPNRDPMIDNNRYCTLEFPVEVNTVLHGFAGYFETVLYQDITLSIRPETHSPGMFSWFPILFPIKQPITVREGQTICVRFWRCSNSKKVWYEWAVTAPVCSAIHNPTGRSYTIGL
T1 sequence (Q9BQA1 whole entry partner): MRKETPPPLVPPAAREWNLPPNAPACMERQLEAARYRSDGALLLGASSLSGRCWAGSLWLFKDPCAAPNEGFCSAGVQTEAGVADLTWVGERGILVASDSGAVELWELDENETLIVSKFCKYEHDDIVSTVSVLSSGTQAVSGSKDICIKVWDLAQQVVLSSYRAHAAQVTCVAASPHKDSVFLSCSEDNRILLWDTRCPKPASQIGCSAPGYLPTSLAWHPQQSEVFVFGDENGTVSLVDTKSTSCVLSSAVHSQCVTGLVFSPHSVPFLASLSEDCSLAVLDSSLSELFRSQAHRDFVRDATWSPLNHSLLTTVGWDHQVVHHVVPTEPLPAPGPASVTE

As usually defined, the GI50 is the concentration that inhibits growth by half. With `Cn1cc(-c2ccc3nc(C(=O)NC[C@H](O)CN4CCc5ccccc5C4)cn3c2)cn1` [Example 13, (S)—N-(3-(3,4-dihydroisoquinolin-2(1H)-yl)-2-hydroxypropyl)-6-(1-methyl-1H-pyrazol-4-yl)imidazo[1,2-a]pyridine-2-carboxamide], the IC50 is 10 to 1000 nM in test [1] (setting [2]) and > 5000 nM against PRMT5/MEP50. The GI50 in the test on Z-138 cells was > 5000 nM.

As for `O=C(NC[C@H](O)CN1CCc2ccccc2C1)c1cn2cc(C3=CCOCC3)ccc2n1` [Example 19, (S)-6-(3,6-dihydro-2H-pyran-4-yl)-N-(3-(3,4-dihydroisoquinolin-2(1H)-yl)-2-hydroxypropyl)imidazo[1,2-a]pyridine-2-carboxamide], the IC50 (in test [1] (setting [3]); in test [1] (setting [2]); with Z-138 cells; against PRMT5/MEP50) was 10 to 1000 nM throughout. Moreover, in the test with Z-138 cells, the GI50 fell in the range of 10 to 1000 nM.

`O=C(NC[C@H](O)CN1CCc2ccccc2C1)c1cn2c(n1)CC[C@@H](C(F)(F)F)C2` [Example 121A, (R)—N—((S)-3-(3,4-dihydroisoquinolin-2(1H)-yl)-2-hydroxypropyl)-6-(trifluoromethyl)-5,6,7,8-tetrahydroimidazo[1,2-a]pyridine-2-carboxamide]: the IC50 (in test [1] (setting [3]); in test [1] (setting [2]); in the test on Z-138 cells; at PRMT5/MEP50) was 10 to 1000 nM in each case. Besides, in the test with Z-138 cells, the GI50 was 10 to 1000 nM.

Consider `CCCc1nc(-c2ccc3nc(C(=O)NC[C@H](O)CN4CCc5ccccc5C4)cn3c2)no1` [Example 5, (S)—N-(3-(3,4-dihydroisoquinolin-2(1H)-yl)-2-hydroxypropyl)-6-(5-propyl-1,2,4-oxadiazol-3-yl)imidazo[1,2-a]pyridine-2-carboxamide], for which the IC50 (in test [1] (setting [3]); in test [1] (setting [2]); in the test with Z-138 cells; at PRMT5/MEP50) was 10 to 1000 nM each time. For the same compound, the GI50 in the test on Z-138 cells is 10 to 1000 nM.

`O=C(NC[C@H](O)CN1CCc2ccccc2C1)c1cn2cc(C(F)(F)F)ccc2n1` [Example 8, (S)—N-(3-(3,4-dihydroisoquinolin-2(1H)-yl)-2-hydroxypropyl)-6(trifluoromethyl) imidazo[1,2-a]pyridine-2-carboxamide]: the IC50 (in test [1] (setting [3]); in test [1] (setting [2]); with Z-138 cells; against PRMT5/MEP50) was 10 to 1000 nM each time. The 50% growth inhibitory concentration (GI50) with Z-138 cells lay in the range of 10 to 1000 nM.

`O=C(NCC(O)CNC1Cc2ccccc2C1)c1cn2cc(C(F)(F)F)ccc2n1` (centres unmarked) [Example 96]: the IC50 (in test [1] (setting [3]); in test [1] (setting [2]); with Z-138 cells; against PRMT5/MEP50) was 10 to 1000 nM throughout. For the same compound, the 50% growth inhibitory concentration (GI50) with Z-138 cells fell in the range of 10 to 1000 nM.

In the case of `O=C(NCC(O)CN1CCc2ccccc2C1)c1cn2cc(-c3ccccc3)ccc2n1` (centres unmarked) [Example 10, N-(3-(3,4-dihydroisoquinolin-2(1H)-yl)-2-hydroxypropyl)-6-phenylimidazo[1,2-a]pyridine-2-carboxamide], the IC50 (in test [1] (setting [3]); in test [1] (setting [2]); in the test on Z-138 cells; against PRMT5/MEP50) was 10 to 1000 nM each time. Also, the GI50 with Z-138 cells lay in the range of 10 to 1000 nM.

With `CC(=O)Nc1ccc2nc(C(=O)NC[C@H](O)CN3CCc4ccccc4C3)cn2c1` [Example 39, (S)-6-acetamido-N-(3-(3,4-dihydroisoquinolin-2(1H)-yl)-2-hydroxypropyl)imidazo[1,2-a]pyridine-2-carboxamide], the IC50 (in test [1] (setting [2]); on PRMT5/MEP50) was 10 to 1000 nM each time. For the same compound, the concentration for 50% growth inhibition (GI50) in the test with Z-138 cells was 1000 to 5000 nM.

On to `Cn1cc(-c2cn3cc(C(=O)NC[C@H](O)CN4CCc5ccccc5C4)nc3cn2)cn1` [Example 45, (S)—N-(3-(3,4-dihydroisoquinolin-2(1H)-yl)-2-hydroxypropyl)-6-(1-methyl-1H-pyrazol-4-yl)imidazo[1,2-a]pyrazine-2-carboxamide], for which the IC50 (in test [1] (setting [3]); in test [1] (setting [2]); in the test with Z-138 cells; on PRMT5/MEP50) was 10 to 1000 nM each time. Moreover, the 50% growth inhibitory concentration (GI50) in the test on Z-138 cells was in the range of 10 to 1000 nM.

Regarding `Cn1cc(-c2ccc3nc(C(=O)NC[C@H](O)CN4CCc5ccccc5C4)cn3c2)nn1` [Example 36, (S)—N-(3-(3,4-dihydroisoquinolin-2(1H)-yl)-2-hydroxypropyl)-6-(1-methyl-1H-1,2,3-triazol-4-yl)imidazo[1,2-a]pyridine-2-carboxamide], the IC50 (in test [1] (setting [3]); in test [1] (setting [2]); with Z-138 cells; against PRMT5/MEP50) was 10 to 1000 nM in each case. For the same compound, the GI50 with Z-138 cells lay within 10 to 1000 nM.

On to `O=C(NC[C@H](O)CN1CCc2ccccc2C1)c1cn2c(n1)CC[C@H](C(F)(F)F)C2` [Example 121B, (S)—N—((S)-3-(3,4-dihydroisoquinolin-2(1H)-yl)-2-hydroxypropyl)-6-(trifluoromethyl)-5,6,7,8-tetrahydroimidazo[1,2-a]pyridine-2-carboxamide], for which the IC50 lay in the range of 10 to 1000 nM in test [1] (setting [2]) and 1000 to 5000 nM at PRMT5/MEP50. Also, the concentration for 50% growth inhibition (GI50) in the test on Z-138 cells lay within 10 to 1000 nM.

Consider `COc1ccc2nc(C(=O)NCC(O)CN3CCc4ccccc4C3)cn2c1` (centres unmarked) [Example 9, N-(3-(3,4-dihydroisoquinolin-2(1H)-yl)-2-hydroxypropyl)-6-methoxyimidazo [1,2a]pyridine-2-carboxamide], for which the IC50 in test [1] (setting [2]) was 10 to 1000 nM; against PRMT5/MEP50, 1000 to 5000 nM. For the same compound, the GI50 with Z-138 cells lay in the range of 1000 to 5000 nM.

Consider `CCn1cc(-c2ccc3nc(C(=O)NC[C@H](O)CN4CCc5ccccc5C4)cn3c2)cn1` [Example 4, (S)—N-(3-(3,4-dihydroisoquinolin-2(1H)-yl)-2-hydroxypropyl)-6-(1-ethyl-1H-pyrazol-4-yl)imidazo [1,2-a]pyridine-2-carboxamide], for which the IC50 (in test [1] (setting [3]); in test [1] (setting [2]); in the test with Z-138 cells; against PRMT5/MEP50) was 10 to 1000 nM in each case. Besides, the concentration for 50% growth inhibition (GI50) in the test on Z-138 cells fell in the range of 10 to 1000 nM.

As for `Cn1ccc(-c2cn3cc(C(=O)NC[C@H](O)CN4CCc5ccccc5C4)nc3cn2)cc1=O` [Example 47, (S)—N-(3-(3,4-dihydroisoquinolin-2(1H)-yl)-2-hydroxypropyl)-6-(1-methyl-2-oxo-1,2-dihydropyridin-4-yl)imidazo[1,2-a]pyrazine-2-carboxamide], the IC50 (in test [1] (setting [3]); in test [1] (setting [2]); with Z-138 cells; on PRMT5/MEP50) was 10 to 1000 nM in each case. Besides, the GI50 with Z-138 cells is 10 to 1000 nM.

Regarding `O=C(NC[C@H](O)CN1CCc2ccccc2C1)c1cn2cc(-c3cc(F)cc(F)c3)ccc2n1` [Example 16, (S)-6-(3,5-difluorophenyl)-N-(3-(3,4-dihydroisoquinolin-2(1H)-yl)-2-hydroxypropyl)imidazo[1,2-a]pyridine-2-carboxamide], the IC50 (in test [1] (setting [3]); in test [1] (setting [2]); with Z-138 cells; on PRMT5/MEP50) was 10 to 1000 nM in each case. For the same compound, the GI50 with Z-138 cells is 10 to 1000 nM.

For the compound `O=C(NCC(O)CN1CCc2ccccc2C1)c1cn2cc(-c3ccc(F)cc3)ccc2n1` (centres unmarked) [Example 11, N-(3-(3,4-dihydroisoquinolin-2(1H)-yl)-2-hydroxypropyl)-6-(4-fluorophenyl) imidazo[1,2-a]pyridine-2-carboxamide], the IC50 (in test [1] (setting [3]); in test [1] (setting [2]); in the test on Z-138 cells; on PRMT5/MEP50) was 10 to 1000 nM each time. Also, in the test on Z-138 cells, the 50% growth inhibitory concentration (GI50) is 10 to 1000 nM.

With `CC(=O)N1CC(n2cc(-c3ccc4nc(C(=O)NC[C@H](O)CN5CCc6ccccc6C5)cn4c3)cn2)C1` [Example 23, (S)-6-(1-(1-acetylazetidin-3-yl)-1H-pyrazol-4-yl)-N-(3-(3,4-dihydroisoquinolin-2(1H)-yl)-2-hydroxypropyl)imidazo[1,2-a]pyridine-2-carboxamide], the IC50 (in test [1] (setting [3]); in test [1] (setting [2]); in the test on Z-138 cells; against PRMT5/MEP50) was 10 to 1000 nM throughout. For the same compound, the concentration for 50% growth inhibition (GI50) in the test on Z-138 cells was in the range of 10 to 1000 nM.

As for `Cn1cc(-c2cnc3nc(C(=O)NC[C@H](O)CN4CCc5ccccc5C4)cn3c2)cn1` [Example 43, (S)—N-(3-(3,4-dihydroisoquinolin-2(1H)-yl)-2-hydroxypropyl)-6-(1-methyl-1H-pyrazol-4-yl)imidazo[1,2-a]pyrimidine-2-carboxamide], the IC50 in test [1] (setting [2]) was 10 to 1000 nM; against PRMT5/MEP50, > 5000 nM. In addition, in the test on Z-138 cells, the GI50 is > 5000 nM.

`CO[C@@H]1CCc2nc(C(=O)NC[C@H](O)CN3CCc4ccccc4C3)cn2C1` [Example 107A, (R)—N—((S)-3-(3,4-dihydroisoquinolin-2(1H)-yl)-2-hydroxypropyl)-6-methoxy-5,6,7,8-tetrahydroimidazo[1,2-a]pyridine-2-carboxamide]: the figures for the IC50 (in test [1] (setting [2]); against PRMT5/MEP50) were 10 to 1000 nM and > 5000 nM, respectively. Further, in the test with Z-138 cells, the 50% growth inhibitory concentration (GI50) lay within 1000 to 5000 nM.
